Measurements reported in patent publication US20230183640A1, “METABOLIC INHIBITORS WITH EFFICACY FOR INHIBITING SULFIDE PRODUCTION IN HARSH ENVIRONMENTS” (MC (US) 3 LLC, priority 2020, published 2023).

Experiments:
Test in all cases: Log (Growth) efficacy in anaerobic conditions, non-SRB bacteria
Assay type in all cases: cell-based
[1] = test system: Enterobacter aerogenes 13048
Procedure: (§1) Enumerations were done at each time point, which included 0 hour, 1 hour, 4 hours and 24 hours. Enumeration plates were made to determine the log growth in each dosed sample. For this process, enumeration plates were prepared by adding 180 μL fresh TSB. 20 μL was taken from each well of the challenge plates and transferred to the enumeration plates using a 20-200 μL multichannel pipette. Enumeration plates were mixed three times using the multichannel pipette and serial diluted down the plate tenfold (20 μL into 180 μL). This serial dilution process was repeated for all challenge plate rows giving a total of 6 enumeration plates. These enumeration plates were read after 24-hours and by counting the number of turbid wells in a row.
(§2) Klebsiella pneumoniae 13883, Enterobacter aerogenes 13048, Escherichia coli 8739, and Enterococcus faecalis 29212 cultures were made by adding one loop from a freezer stock to 10 mL of fresh Phenol Red Media. These were grown anaerobically at 30° C. for 24 hours.
(§3) Following the 24-hour incubation, each culture was diluted to 1:10 in fresh Phenol Red Media. Using these cultures, two deep well plates were prepared. Edge wells were not used due to their inherent variability and evaporation of the media. Each of the components were added at their respective concentrations for a final volume of 250 μL per well. In Table 9, the concentrations of the compound C1 used for the experiments are listed. Each experiment was done with at least three replicates for different treatments and non-treatment controls. Plates were then sealed with a titer-top and incubated at room temperature in anaerobic chamber. Enumerations were conducted at 0 hour, 1 hour, 4 hours, and 24 hours. The process for these enumerations was the same as that done for example 2; however, utilizing phenol red media instead of tryptic soy broth.

[2] = test system: Enterococcus faecalis 29212
Procedure: as §1, §2, §3

Escherichia coli 8739 = test system: Escherichia coli 8739
Procedure: as §1, §2, §3

[3] = test system: Klebsiella pneumoniae 13883
Procedure: as §1, §2, §3

Structure (SMILES): O=C(CN1C(=O)c2cccc3cccc(c23)C1=O)NO [C1]
- Log (Growth) ([1]; 0 hours, 15.625 PPM): 6.333
- Log (Growth) ([1]; 0 hours, 31.25 PPM): 6.667
- Log (Growth) ([1]; 0 hours, 62.5 PPM): 6.333
- Log (Growth) ([1]; 0 hours, 125 PPM): 6.333
- Log (Growth) ([1]; 0 hours, 250 PPM): 6.667
- Log (Growth) ([1]; 0 hours, 500 PPM): 6.333
- Log (Growth) ([1]; 1 hour, 15.625 PPM): 7.000
- Log (Growth) ([1]; 1 hour, 31.25 PPM): 6.333
- Log (Growth) ([1]; 1 hour, 62.5 PPM): 7.000
- Log (Growth) ([1]; 1 hour, 125 PPM): 6.000
- Log (Growth) ([1]; 1 hour, 250 PPM): 5.667
- Log (Growth) ([1]; 1 hour, 500 PPM): 5.667
- Log (Growth) ([1]; 4 hours, 15.625 PPM): 7.333
- Log (Growth) ([1]; 4 hours, 31.25 PPM): 7.000
- Log (Growth) ([1]; 4 hours, 62.5 PPM): 4.667
- Log (Growth) ([1]; 4 hours, 125 PPM): 5.000
- Log (Growth) ([1]; 4 hours, 250 PPM): 5.333
- Log (Growth) ([1]; 4 hours, 500 PPM): 5.333
- Log (Growth) ([1]; 24 hours, 15.625 PPM): 7.667
- Log (Growth) ([1]; 24 hours, 31.25 PPM): 6.667
- Log (Growth) ([1]; 24 hours, 62.5 PPM): 6.333
- Log (Growth) ([1]; 24 hours, 125 PPM): 6.000
- Log (Growth) ([1]; 24 hours, 250 PPM): 6.333
- Log (Growth) ([1]; 24 hours, 500 PPM): 6.000
- Log (Growth) ([2]; 0 hours, 15.625 PPM): 7.000
- Log (Growth) ([2]; 0 hours, 31.25 PPM): 6.667
- Log (Growth) ([2]; 0 hours, 62.5 PPM): 7.000
- Log (Growth) ([2]; 0 hours, 125 PPM): 6.333
- Log (Growth) ([2]; 0 hours, 250 PPM): 7.000
- Log (Growth) ([2]; 0 hours, 500 PPM): 6.667
- Log (Growth) ([2]; 1 hour, 15.625 PPM): 6.667
- Log (Growth) ([2]; 1 hour, 31.25 PPM): 6.000
- Log (Growth) ([2]; 1 hour, 62.5 PPM): 6.333
- Log (Growth) ([2]; 1 hour, 125 PPM): 5.667
- Log (Growth) ([2]; 1 hour, 250 PPM): 6.333
- Log (Growth) ([2]; 1 hour, 500 PPM): 6.000
- Log (Growth) ([2]; 4 hours, 15.625 PPM): 6.667
- Log (Growth) ([2]; 4 hours, 31.25 PPM): 5.667
- Log (Growth) ([2]; 4 hours, 62.5 PPM): 4.667
- Log (Growth) ([2]; 4 hours, 125 PPM): 4.333
- Log (Growth) ([2]; 4 hours, 250 PPM): 4.333
- Log (Growth) ([2]; 4 hours, 500 PPM): 4.667
- Log (Growth) ([2]; 24 hours, 15.625 PPM): 6.333
- Log (Growth) ([2]; 24 hours, 31.25 PPM): 5.333
- Log (Growth) ([2]; 24 hours, 62.5 PPM): 5.667
- Log (Growth) ([2]; 24 hours, 125 PPM): 5.667
- Log (Growth) ([2]; 24 hours, 250 PPM): 4.333
- Log (Growth) ([2]; 24 hours, 500 PPM): 4.000
- Log (Growth) (Escherichia coli 8739; 0 hours, 15.625 PPM): 7.000
- Log (Growth) (Escherichia coli 8739; 0 hours, 31.25 PPM): 6.667
- Log (Growth) (Escherichia coli 8739; 0 hours, 62.5 PPM): 6.667
- Log (Growth) (Escherichia coli 8739; 0 hours, 125 PPM): 6.333
- Log (Growth) (Escherichia coli 8739; 0 hours, 250 PPM): 6.000
- Log (Growth) (Escherichia coli 8739; 0 hours, 500 PPM): 6.333
- Log (Growth) (Escherichia coli 8739; 1 hour, 15.625 PPM): 7.000
- Log (Growth) (Escherichia coli 8739; 1 hour, 31.25 PPM): 6.000
- Log (Growth) (Escherichia coli 8739; 1 hour, 62.5 PPM): 6.333
- Log (Growth) (Escherichia coli 8739; 1 hour, 125 PPM): 6.000
- Log (Growth) (Escherichia coli 8739; 1 hour, 250 PPM): 6.000
- Log (Growth) (Escherichia coli 8739; 1 hour, 500 PPM): 6.000
- Log (Growth) (Escherichia coli 8739; 4 hours, 15.625 PPM): 6.667
- Log (Growth) (Escherichia coli 8739; 4 hours, 31.25 PPM): 6.667
- Log (Growth) (Escherichia coli 8739; 4 hours, 62.5 PPM): 5.333
- Log (Growth) (Escherichia coli 8739; 4 hours, 125 PPM): 4.667
- Log (Growth) (Escherichia coli 8739; 4 hours, 250 PPM): 5.000
- Log (Growth) (Escherichia coli 8739; 4 hours, 500 PPM): 4.333
- Log (Growth) (Escherichia coli 8739; 24 hours, 15.625 PPM): 6.000
- Log (Growth) (Escherichia coli 8739; 24 hours, 31.25 PPM): 4.000
- Log (Growth) (Escherichia coli 8739; 24 hours, 62.5 PPM): 2.667
- Log (Growth) (Escherichia coli 8739; 24 hours, 125 PPM): 3.000
- Log (Growth) (Escherichia coli 8739; 24 hours, 250 PPM): 4.000
- Log (Growth) (Escherichia coli 8739; 24 hours, 500 PPM): 2.667
- Log (Growth) ([3]; 0 hours, 15.625 PPM): 6.667
- Log (Growth) ([3]; 0 hours, 31.25 PPM): 6.667
- Log (Growth) ([3]; 0 hours, 62.5 PPM): 6.667
- Log (Growth) ([3]; 0 hours, 125 PPM): 6.667
- Log (Growth) ([3]; 0 hours, 250 PPM): 6.000
- Log (Growth) ([3]; 0 hours, 500 PPM): 6.000
- Log (Growth) ([3]; 1 hour, 15.625 PPM): 6.667
- Log (Growth) ([3]; 1 hour, 31.25 PPM): 5.667
- Log (Growth) ([3]; 1 hour, 62.5 PPM): 5.000
- Log (Growth) ([3]; 1 hour, 125 PPM): 3.667
- Log (Growth) ([3]; 1 hour, 250 PPM): 4.333
- Log (Growth) ([3]; 1 hour, 500 PPM): 4.333
- Log (Growth) ([3]; 4 hours, 15.625 PPM): 3.333
- Log (Growth) ([3]; 4 hours, 31.25 PPM): 2.000
- Log (Growth) ([3]; 4 hours, 62.5 PPM): 2.000
- Log (Growth) ([3]; 4 hours, 125 PPM): 1.667
- Log (Growth) ([3]; 4 hours, 250 PPM): 2.333
- Log (Growth) ([3]; 4 hours, 500 PPM): 2.000
- Log (Growth) ([3]; 24 hours, 15.625 PPM): 6.333
- Log (Growth) ([3]; 24 hours, 31.25 PPM): 4.667
- Log (Growth) ([3]; 24 hours, 62.5 PPM): 5.667
- Log (Growth) ([3]; 24 hours, 125 PPM): 1.667
- Log (Growth) ([3]; 24 hours, 250 PPM): 0.000
- Log (Growth) ([3]; 24 hours, 500 PPM): 0.000
